Series [1] deals with human AMPK (full-length γ1, β1 and α1 subunits) (Homo sapiens (Human), UniProt Q13131+Q9Y478). Description: AMPK in vitro biochemical assay (33P-based, SAMS peptide, PP2A dephosphorylation). To be noted: for EC50: activation of phosphorylated AMPK, 33P-ATP, SAMS peptide, PP2A treatment, 4-parameter fit; for Emax: read-out: Maximum. In short, it runs like this:
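Phosphorylated full-length α1β1γ1 AMPK (E. coli-expressed, His-purified, gel-filtered) preincubated 15 min RT with compound in HEPES pH 7.5, 10 mM MgCl2 buffer, then PP2A added to dephosphorylate pThr172.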

Where [2] appears, read: counts as % of positive control wells (enzyme, allosteric activator or AMP, PP2A and substrate).

Data on 31 compounds can be found in patent US9394285B2 (Pfizer Inc., priority 2013, dated 2016).

The EC50 is the concentration at which the effect is half-maximal. What is called melting point is the temperature of the solid-liquid transition.

Chain of human AMPK (full-length γ1, β1 and α1 subunits) (Q13131 whole entry): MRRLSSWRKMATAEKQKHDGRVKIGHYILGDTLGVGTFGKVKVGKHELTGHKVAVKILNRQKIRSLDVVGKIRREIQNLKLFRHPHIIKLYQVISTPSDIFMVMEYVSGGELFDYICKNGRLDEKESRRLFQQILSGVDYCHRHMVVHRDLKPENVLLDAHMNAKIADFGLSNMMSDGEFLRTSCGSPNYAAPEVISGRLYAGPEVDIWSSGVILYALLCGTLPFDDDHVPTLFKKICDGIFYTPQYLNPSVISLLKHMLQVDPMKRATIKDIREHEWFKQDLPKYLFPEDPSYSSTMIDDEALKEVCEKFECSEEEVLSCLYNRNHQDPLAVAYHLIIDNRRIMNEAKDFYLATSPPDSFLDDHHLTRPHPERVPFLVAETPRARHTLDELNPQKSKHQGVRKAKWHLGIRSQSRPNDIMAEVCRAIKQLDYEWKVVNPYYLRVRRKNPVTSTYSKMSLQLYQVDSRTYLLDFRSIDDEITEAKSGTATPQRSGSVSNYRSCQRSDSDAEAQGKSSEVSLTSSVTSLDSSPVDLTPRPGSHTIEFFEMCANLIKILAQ
Chain of human AMPK (full-length γ1, β1 and α1 subunits) (Q9Y478 whole entry): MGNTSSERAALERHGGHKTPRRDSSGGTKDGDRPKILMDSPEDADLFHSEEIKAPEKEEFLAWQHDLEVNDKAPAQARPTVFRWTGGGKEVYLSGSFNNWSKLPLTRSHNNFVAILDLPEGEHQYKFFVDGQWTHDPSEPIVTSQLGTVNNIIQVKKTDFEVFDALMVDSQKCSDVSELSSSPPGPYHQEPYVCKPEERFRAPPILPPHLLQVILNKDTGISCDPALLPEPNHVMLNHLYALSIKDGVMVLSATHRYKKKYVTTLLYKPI
Chain of human AMPK (full-length γ1, β1 and α1 subunits) (P54619 whole entry partner): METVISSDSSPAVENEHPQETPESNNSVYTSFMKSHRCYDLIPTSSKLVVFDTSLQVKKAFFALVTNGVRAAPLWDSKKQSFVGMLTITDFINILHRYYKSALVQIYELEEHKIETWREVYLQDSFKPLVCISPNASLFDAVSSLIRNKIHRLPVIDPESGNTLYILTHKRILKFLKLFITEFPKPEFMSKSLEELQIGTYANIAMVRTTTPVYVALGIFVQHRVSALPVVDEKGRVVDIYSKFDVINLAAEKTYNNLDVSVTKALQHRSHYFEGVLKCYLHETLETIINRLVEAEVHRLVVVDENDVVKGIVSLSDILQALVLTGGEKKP

Turning to `COc1ccc(-c2cc3c(S(=O)(=O)O)c[nH]c3cc2Cl)cc1` [Example 132, 6-Chloro-5-(4-methoxyphenyl)-1H-indole-3-sulfonic acid], the melting point is 240 °C (dec.). In series [1], the EC50 worked out at 483 nM. Moreover, the Emax in series [1] (setting [2]) is 46%.
As to `N#Cc1cc2[nH]cc(C(=O)O)c2cc1-c1ccc(C2(CO)CC2)cc1` [Example 23, 6-cyano-5-{4-[1-(hydroxymethyl)cyclopropyl]phenyl}-1H-indole-3-carboxylic acid], the melting point was in the range of 270.9 to 271.6 °C. In series [1], this compound displayed an EC50 of 16 nM. Besides, the Emax in series [1] (setting [2]) was found to be 88%.
In turn, `O=C(O)c1c[nH]c2cc(Cl)c(-c3ccc(OCCCO)cc3)cc12` [Example 30, 6-chloro-5-[4-(3-hydroxypropoxy)phenyl]-1H-indole-3-carboxylic acid] displayed a melting point of 209.3 to 209.6 °C. For the same compound, the midpoint of the response in series [1], the EC50, lay at 30 nM. In addition, the Emax in series [1] (setting [2]) was 92%.
On to `CC(=O)N1CCC(c2ccc(-c3cc4c(C(=O)O)c[nH]c4cc3Cl)cc2)CC1` [Example 65, 5-[4-(1-acetylpiperidin-4-yl)phenyl]-6-chloro-1H-indole-3-carboxylic acid], for which the midpoint of the response in series [1], the EC50, lay at 135 nM. Besides, the Emax in series [1] (setting [2]) is 103%.
For `CN1CCN(c2ccc(-c3cc4c(C(=O)O)n[nH]c4cc3Cl)cc2)CC1` [Example 106, 6-Chloro-5-(4-(4-methylpiperazin-1-yl)phenyl)-1H-indazole-3-carboxylic acid], in that order: 73 nM and 94%.
In turn, `COc1ccc(-c2cc3c(C(=O)O)c[nH]c3cc2C#N)cc1` [Example 32, 6-Cyano-5-(4-methoxyphenyl)-1H-indole-3-carboxylic acid] had an EC50 in series [1] of 570 nM. Moreover, in series [1] (setting [2]), the Emax came out at 97%.
In series [1], `CC(=O)c1ccc(-c2cc3c(C(=O)O)n[nH]c3cc2Cl)cc1` [Example 105, 5-(4-Acetylphenyl)-6-chloro-1H-indazole-3-carboxylic acid] returned an EC50 of 122 nM. For the same compound, the Emax in series [1] (setting [2]) was found to be 84%.
For `COc1nc(N(C)CCO)ccc1-c1cc2c(C(=O)O)c[nH]c2cc1Cl` [Example 186, 6-chloro-5-{6-[(2-hydroxyethyl)(methyl)amino]-2-methoxypyridin-3-yl}-1H-indole-3-carboxylic acid], in that order: 84.5 nM and 114%.
The corresponding values for `O=C(O)c1c[nH]c2cc(Cl)c(-c3ccc(OCCCN4CC[C@@H](F)C4)cc3)cc12` [Example 189, 6-chloro-5-(4-{3-[(3R)-3-fluoropyrrolidin-1-yl]propoxy}phenyl)-1H-indole-3-carboxylic acid] are 57.7 nM and 112%.
For `O=C(O)c1c[nH]c2cc(Cl)c(-c3ccc4c(c3)OC[C@@H](CO)O4)cc12` [Example 87, 6-chloro-5-[(2R)-2-(hydroxymethyl)-2,3-dihydro-1,4-benzodioxin-6-yl]-1H-indole-3-carboxylic acid], in that order: 69.5 nM and 112%.
Take `O=C(O)c1c[nH]c2cc(F)c(-c3ccc(C4CCCO4)cc3)c(F)c12` (centres unmarked) [Example 153, 4,6-difluoro-5-[4-(tetrahydrofuran-2-yl)phenyl]-1H-indole-3-carboxylic acid]: in series [1] (setting [2]), the Maximum is 112.3%.
`CC(=O)N1CCN(c2ccc(-c3cc4c(C(=O)O)n[nH]c4cc3Cl)cc2)CC1` [Example 107, 5-(4-(4-Acetylpiperazin-1-yl)phenyl)-6-chloro-1H-indazole-3-carboxylic acid] registered an EC50 in series [1] of 43.5 nM. In addition, the Emax in series [1] (setting [2]) was determined as 60%.
For the compound `COc1cc(C2(O)CCC2)ccc1-c1cc2c(C(=O)O)c[nH]c2cc1Cl` [Example 62, 6-chloro-5-[4-(1-hydroxycyclobutyl)-2-methoxyphenyl]-1H-indole-3-carboxylic acid], in series [1], the EC50 is 33.3 nM. Further, the Emax in series [1] (setting [2]) was found to be 74%.
For `O=C(O)c1c[nH]c2cc(F)c(-c3ccc(C4(CO)CCC4)cc3F)cc12` [Example 165, 6-fluoro-5-{2-fluoro-4-[1-(hydroxymethyl)cyclobutyl]phenyl}-1H-indole-3-carboxylic acid], in that order: 31.9 nM and 159%.
In the case of `COC(C)c1ccc(-c2cc3c(C(=O)O)n[nH]c3cc2Cl)cc1` (centres unmarked) [Example 125, 6-Chloro-5-(4-(1-methoxyethyl)phenyl)-1H-indazole-3-carboxylic acid], the midpoint of the response in series [1], the EC50, lay at 132 nM. The Emax in series [1] (setting [2]) was 90%.
Compound `O=C(O)c1n[nH]c2cc(F)c(-c3ccc(C4CCOCC4)cc3)cc12` [Example 130, 6-Fluoro-5-(4-(tetrahydro-2H-pyran-4-yl)phenyl)-1H-indazole-3-carboxylic acid] displayed a melting point of 295 °C. Further, the EC50 in series [1] came out at 305 nM. Also, the Emax in series [1] (setting [2]) is 100%.
As for `O=C(O)c1c[nH]c2cc(Cl)c(-c3ccc(OCCCN4CCOCC4=O)cc3)cc12` [Example 54, 6-chloro-5-{4-[3-(3-oxomorpholin-4-yl)propoxy]phenyl}-1H-indole-3-carboxylic acid], in series [1], the EC50 is 32.5 nM. In addition, the Emax in series [1] (setting [2]) was found to be 74%.
The corresponding values for `O=C(O)c1c[nH]c2cc(F)c(-c3ccc(C4(CO)CCC4)cc3)cc12` [Example 143, 6-fluoro-5-{4-[1-(hydroxymethyl)cyclobutyl]phenyl}-1H-indole-3-carboxylic acid] are 17.7 nM and 194%.
In the case of `O=C(O)c1n[nH]c2cc(Cl)c(-c3ccc(C4CCOC4)cc3)cc12` (racemic) [Example 124, (±)-6-Chloro-5-(4-(tetrahydrofuran-3-yl)phenyl)-1H-indazole-3-carboxylic acid], the midpoint of the response in series [1], the EC50, lay at 93.8 nM. Also, the Emax in series [1] (setting [2]) was 93%.
For `O=C(O)c1c[nH]c2cc(F)c(-c3ccc(OCCC4CCCO4)cc3)c(F)c12` (centres unmarked) [Example 191, 4,6-difluoro-5-{4-[2-(tetrahydrofuran-2-yl)ethoxy]phenyl}-1H-indole-3-carboxylic acid], in that order: 121 nM and 140%.
For `O=C(O)c1c[nH]c2cc(Cl)c(-c3ccc4c(c3)OCC4)cc12` [Example 57, 6-chloro-5-(2,3-dihydrobenzofuran-6-yl)-1H-indole-3-carboxylic acid], in that order: 64.5 nM and 107%.
For `O=C(O)c1c[nH]c2cc(Cl)c(-c3ccc(OCCN4CCNCC4)cc3)cc12` [Example 48, 6-chloro-5-{4-[2-(piperazin-1-yl)ethoxy]phenyl}-1H-indole-3-carboxylic acid], in that order: 110 nM and 89%.
In turn, `COC(=O)N1CCC(c2ccc(-c3cc4c(C(=O)O)c[nH]c4cc3Cl)cc2)C1` (racemic) [Example 14, 6-chloro-5-{4-[1-(methoxycarbonyl)pyrrolidin-3-yl]phenyl}-1H-indole-3-carboxylic acid] registered an EC50 in series [1] of 151 nM. For the same compound, the Emax in series [1] (setting [2]) was 100%.
For `CC(=O)N1CCC(c2ccc(-c3cc4c(C(=O)O)c[nH]c4cc3Cl)cc2)C1` (centres unmarked) [Example 15, 5-[4-(1-acetylpyrrolidin-3-yl)phenyl]-6-chloro-1H-indole-3-carboxylic acid], in that order: 632 nM and 92%.
As for `NC(=O)COc1ccc(-c2cc3c(C(=O)O)c[nH]c3cc2Cl)cc1` [Example 70, 5-[4-(2-amino-2-oxoethoxy)phenyl]-6-chloro-1H-indole-3-carboxylic acid], in series [1], the EC50 was found to be 77.5 nM. Besides, the Emax in series [1] (setting [2]) amounted to 106%.
The corresponding values for `CC(=O)N1CC(COc2ccc(-c3cc4c(C(=O)O)c[nH]c4cc3Cl)cc2)C1` [Example 9, 5-{4-[(1-acetylazetidin-3-yl)methoxy]phenyl}-6-chloro-1H-indole-3-carboxylic acid] are 71.2 nM and 81%.
The corresponding values for `O=C(O)c1c[nH]c2cc(Cl)c(-c3ccc(OCCC4COC4)cc3)cc12` [Example 156, 6-chloro-5-(4-(2-(oxetan-3-yl)ethoxy)phenyl)-1H-indole-3-carboxylic acid] are 31.9 nM and 98.9%.
For `CC(C)(CO)c1ccc(-c2cc3c(C(=O)O)n[nH]c3cc2Cl)cc1` [Example 115, 6-Chloro-5-(4-(1-hydroxy-2-methylpropan-2-yl)phenyl)-1H-indazole-3-carboxylic acid], in that order: 27 nM and 95%.
Compound `COc1cc(-c2c(F)cc3[nH]cc(C(=O)O)c3c2F)ccc1C1(O)CCC1` [Example 145] had an EC50 in series [1] of 57.9 nM. In addition, in series [1] (setting [2]), the Emax worked out at 65.2%.
The corresponding values for `O=C(O)c1c[nH]c2cc(F)c(-c3ccc(OCCO)cc3)c(F)c12` [Example 24, 4,6-difluoro-5-[4-(2-hydroxyethoxy)phenyl]-1H-indole-3-carboxylic acid] are 252 nM and 91%.
The corresponding values for `CC(=O)N1CCC(c2ccc(-c3cc4c(C(=O)O)n[nH]c4cc3Cl)cc2)CC1` [Example 117, 5-(4-(1-Acetylpiperidin-4-yl)phenyl)-6-chloro-1H-indazole-3-carboxylic acid] are 90.2 nM and 107%.
